In brackets after ≈: the same amount, converted by molar mass. Entries after “also recorded” stand apart in the source; their conditions may differ.
How the values were obtained:
M. avium = experiment: MIC by resazurin microtiter assay (REMA), M. avium strains
Protocol: (§4) Reference strains were purchased from the American Type Culture Collection (ATCC; Manassas, VA, USA). […] All strains were cultivated in Middlebrook 7H9 liquid broth (Difco Laboratories, Detroit, MI) supplemented with 10% oleic acid-albumin-dextrose-catalase (OADC) or plated on Middlebrook 7H10 agar (Difco Laboratories) with 10% OADC enrichment at 37°C.
(§5) The MICs of all the reagents were determined using the REMA method based on guidelines by the Clinical and Laboratory Standards Institute ([57]). […] The cultures were diluted to an OD600 = 0.001 in 7H9 broth with 5% OADC. […] Two controls (broth only and bacteria only) were incubated to check for other contamination (broth only) and the growth of tested bacteria (bacteria only).

[1] = test system: macrolide-resistant M. intracellulare; experiment: MIC by REMA, macrolide-resistant M. intracellulare strains; details: Mycobacterium intracellulare
From the text: (§6) Reference strains were purchased from the American Type Culture Collection (ATCC; Manassas, VA, USA). All clinical MAC isolates, including macrolide-susceptible and macrolide-resistant strains, were kindly provided by Samsung Medical Center (SMC; Seoul, South Korea) and Asan Medical Center (AMC; Seoul, South Korea). All strains were cultivated in Middlebrook 7H9 liquid broth (Difco Laboratories, Detroit, MI) supplemented with 10% oleic acid-albumin-dextrose-catalase (OADC) or plated on Middlebrook 7H10 agar (Difco Laboratories) with 10% OADC enrichment at 37°C.
as §5
(§7) PCR amplification and sequencing for CLR were based on 23S rRNA. The primers and PCR conditions were as reported previously ([59]). PCR was carried out in a final volume of 20 µL and contained EzPCR Basic 5 × premix (ELPIS, Daejeon, South Korea), 13 µL of sterile dH2O, 1 µL of each forward and reverse primer, and 1 µL of template DNA. The PCR products were run on 1% agarose gels and purified using a NEXprep Gel/PCR Purification Mini Kit (Geneslabs, Gyeonggi, South Korea) for DNA cleanup. Purified PCR products were sequenced by Sanger sequencing in Bionics (Seoul, South Korea) with their gene-specific forward and reverse primers. Sequences obtained from Bionics were subjected to BLAST searches to compare nucleotide sequences with reference strains.

[2] = test system: macrolide-resistant M. avium clinical isolates in BMDMs; experiment: Intracellular activity in BMDMs, macrolide-resistant M. avium clinical isolates; type: cell-based, Mycobacterium avium; details: five macrolide-resistant M. avium clinical isolates, 10 µg/mL, 72 h (Fig. 5)
Protocol: (§1) BMDMs were obtained from 6-week-old female BALB/c mice. Bone marrow cells were differentiated into BMDMs using Dulbecco’s Modified Eagle Medium (Biowest) supplemented with 10% fetal bovine serum (Biowest) and 10% L929 cell supernatant as previously described ([58]).
(§2) BMDMs were seeded at 4 × 10^5 cells/mL in a 48-well plate and incubated overnight at 37°C. MAC strains were infected at a multiplicity of infection of 3 for 4 h and washed with DPBS twice. The cells were then cultured in the absence or presence of drugs in triplicate wells for 72 h. After incubation, the cells were lysed with 0.05% Triton X-100, and the cell lysates serially diluted with DPBS were spotted on 7H10 agar plates supplemented with OADC to count the number of viable bacteria. Colonies were enumerated after 7 d of incubation at 37°C, and the values are reported as the mean CFU ± standard deviation (SD) per mL. All experiments were repeated at least three times independently.

[3] = test system: macrolide-resistant M. avium; experiment: MIC by REMA, macrolide-resistant M. avium strains
From the text: as §6, §5, §7

M. intracellulare = experiment: MIC by resazurin microtiter assay (REMA), M. intracellulare strains
Protocol: as §4, §5

M. avium ATCC 700898 = details: for drug-drug interaction with CLR: synergism FICI ≤0.5, additive 0.5 < FICI ≤ 1, indifferent 1 < FICI ≤ 4, antagonistic FICI >4
Protocol: (§3) To evaluate the efficacy of the combination of agent A and agent B, a fractional inhibitory concentration (FIC) index was calculated as follows: FICI = (FIC of agent A) + (FIC of agent B) = (MIC of agent A in combination/MIC of agent A alone) + (MIC of agent B in combination/MIC of agent B alone). Synergism is defined as FICI ≤0.5, additive as 0.5 < FICI ≤ 1, indifferent as 1 < FICI ≤ 4, and antagonistic as FICI >4. The cultured bacteria were diluted to a 0.005 OD600 in 7H9 broth containing 5% OADC, and the antimicrobial agents were prepared by serial dilutions to a final concentration of 0.03–4 μg/mL. For the evaluation of inhibitory concentrations, the plates were incubated at 37°C for 5–7 d. Then, MIC values were assessed by REMA, and the FICI was calculated.

[4] = test system: M. intracellulare ATCC 13950; details: for drug-drug interaction with CLR: synergism FICI ≤0.5, additive 0.5 < FICI ≤ 1, indifferent 1 < FICI ≤ 4, antagonistic FICI >4
Protocol: as §3

MAC in murine BMDMs = experiment: Intracellular anti-MAC activity in infected BMDMs, summary statements for MAC; type: cell-based, Mycobacterium avium complex; details: for intracellular activity in BMDMs infected with macrolide-resistant MAC clinical isolates: 10 µg/mL, 72 h (Fig. 5 and 6)
Protocol: as §1, §2

[5] = Aqueous kinetic solubility; type: physicochemical; details: for solubility at 2 h: aqueous buffer, kinetic from dmso stock, free form, deionized water pH 7.4, 1% DMSO; for Fold increase, Free form: solubility of free form compared to MP2; for solubility: thermodynamic from solid, HCl salt in deionized water
Protocol: The aqueous kinetic solubility was determined by preparing a 20 mM DMSO stock solution of test compounds and incubating an aliquot of this solution in deionized water at pH 7.4 to set a 1% final concentration of DMSO. In the case of HCl salt compounds, 1–2 mg of compound was weighed and dissolved in deionized water to yield an approximately 10 mg/mL solution. After initial mixing using brief vortexing and sonication, samples were equilibrated by shaking for 2 h at room temperature. Suspensions or solutions with visible particles were filtered through 0.22 µm PVDF membrane filters. The dissolved drug concentration was analyzed using UPLC-MS. To determine the solubility of the HCl salt, 1 mg of compound was weighed into a 2 mL glass tube, and a fixed volume of deionized water was added to yield an approximately 10 mg/mL solution. The solution was equilibrated by shaking for 24 h at room temperature. After equilibration, the vials were visually examined. If a clear solution was obtained, solubility was reported as >mg/mL.

M. avium in murine BMDMs = experiment: Intracellular anti-MAC activity in infected BMDMs, M. avium; type: cell-based, Mycobacterium avium
Protocol: as §1, §2

[6] = Mycobacterium avium, M. avium (SMC#6)
[7] = Mycobacterium avium, M. avium (SMC#1637)
[8] = M. intracellulare (AMC#24), 23S rRNA A2058/A2059 G/A
[9] = M. intracellulare (SMC#104), 23S rRNA A2058/A2059 G/A
[10] = M. intracellulare (SMC#414), 23S rRNA A2058/A2059 A/G
[11] = M. avium (SMC#1216), 23S rRNA A2058/A2059 C/A
[12] = Mycobacterium avium, M. avium (SMC#420), 23S rRNA A2058/A2059 C/A
[13] = Mycobacterium avium, M. avium (SMC#422), 23S rRNA A2058/A2059 A/G
[14] = Mycobacterium avium, M. avium (SMC#1213), 23S rRNA A2058/A2059 T/A
[15] = combination with CLR, synergism FICI ≤0.5, additive 0.5 < FICI ≤ 1

Row | SMILES | MIC (M. avium; [6]) [µg/mL] | MIC (M. avium; [7]) [µg/mL] | MIC [1, 8] [µg/mL] | MIC [1, 9] [µg/mL] | MIC [1, 10] [µg/mL] | MIC [3, 11] [µg/mL] | MIC ([3]; Mycobacterium avium) [µg/mL] | MIC [3, 12] [µg/mL] | MIC [3, 13] [µg/mL] | MIC [3, 14] [µg/mL] | MIC (M. intracellulare; M. intracellulare (SMC#831)) [µg/mL] | MIC (M. intracellulare; M. intracellulare (SMC#2087)) [µg/mL] | MIC (M. intracellulare; Mycobacterium intracellulare) [µg/mL] | drug-drug interaction with CLR (M. avium ATCC 700898) | drug-drug interaction with CLR [4] | intracellular activity in BMDMs infected with macrolide-resistant MAC clinical isolates (MAC in murine BMDMs) | solubility at 2 h [5] [µg/mL] | Fold increase, Free form [5] | solubility [5] [µg/mL] | other results
1 | C/C=C1\NC(=O)[C@H]([C@@H](C)O)NC(=O)c2csc(n2)-c2ccc(-c3nc(-c4nc(C(=O)NC5(C(=O)NCCN6CCN(C[C@@H](O)CO)CC6)CC5)cs4)cs3)nc2-c2csc(n2)[C@H]([C@@H](C)O)NC(=O)c2csc(n2)[C@H](C(C)C)NC(=O)c2csc1n2 [AJ-206] | 0.125 (≈ 0.0982 µM) | 0.125 (≈ 0.0982 µM) | 0.125 (≈ 0.0982 µM) | 0.125 (≈ 0.0982 µM) | 0.125 (≈ 0.0982 µM) | 0.125 (≈ 0.0982 µM) | 0.125 (≈ 0.0982 µM) | 0.5 (≈ 0.393 µM) | 1 (≈ 0.786 µM) | 1 (≈ 0.786 µM) | 0.125 (≈ 0.0982 µM) | 0.125 (≈ 0.0982 µM) | 0.125 (≈ 0.0982 µM) | strongest synergistic effect; also recorded: Synergistic effects | relatively weak but synergistic effect; also recorded: Synergistic effects | significant decrease in CFUs | 102 (≈ 80.2 µM) | ×1,457 fold | > 10000 | MIC (M. avium; M. avium (SMC#7)): 0.5 µg/mL (≈ 0.393 µM); MIC (M. avium; Mycobacterium avium): 0.5 µg/mL (≈ 0.393 µM); MIC (M. avium; Mycobacterium avium, ATCC700898): 0.5 µg/mL (≈ 0.393 µM); intracellular bacterial growth in BMDMs [2]: notably inhibited intracellular bacterial growth; MIC (M. intracellulare; Mycobacterium intracellulare, ATCC13950, M. intracellulare (ATCC 13950), reference strain): 0.5 µg/mL (≈ 0.393 µM); MIC (M. intracellulare; Mycobacterium intracellulare, M. intracellulare (SMC#7)): 0.25 µg/mL (≈ 0.196 µM); MIC (M. intracellulare; Mycobacterium intracellulare, M. intracellulare (SMC#8)): 0.5 µg/mL (≈ 0.393 µM); MIC (M. intracellulare; Mycobacterium intracellulare, M. intracellulare (SMC#12)): 0.5 µg/mL (≈ 0.393 µM); MIC (M. intracellulare; Mycobacterium intracellulare, M. intracellulare (SMC#699)): 0.5 µg/mL (≈ 0.393 µM); intracellular growth of MAC in BMDMs (MAC in murine BMDMs; MAC-infected BMDMs, 72 h (Fig. 2)): remarkably inhibited the intracellular growth of MAC to a similar degree as CLR; also recorded: significantly reduced the number of MAC CFUs inside macrophages
2 | C/C=C1\NC(=O)[C@H]([C@@H](C)O)NC(=O)c2csc(n2)-c2ccc(-c3nc(-c4nc(C(=O)NC5(C(=O)NCCCN6C(=O)CNC6=O)CC5)cs4)cs3)nc2-c2csc(n2)[C@H]([C@@H](C)O)NC(=O)c2csc(n2)[C@H](C(C)C)NC(=O)c2csc1n2 [AJ-039] | 0.125 (≈ 0.102 µM) | 0.125 (≈ 0.102 µM) | 0.125 (≈ 0.102 µM) | 0.125 (≈ 0.102 µM) | 0.125 (≈ 0.102 µM) | 0.125 (≈ 0.102 µM) | 0.125 (≈ 0.102 µM) | 0.5 (≈ 0.408 µM) | 4 (≈ 3.26 µM) | 2 (≈ 1.63 µM) | 0.125 (≈ 0.102 µM) | 0.125 (≈ 0.102 µM) | 0.125 (≈ 0.102 µM) | additive effect | additive effect | relatively little activity | 2.98 (≈ 2.43 µM) | ×43 fold | 25.2 | MIC (M. avium; Mycobacterium avium, ATCC700898, M. avium (ATCC 700898), reference strain): 0.125 µg/mL (≈ 0.102 µM); MIC (M. avium; Mycobacterium avium, M. avium (CP000479.1), reference strain): 0.125 µg/mL (≈ 0.102 µM); MIC (M. avium; Mycobacterium avium, M. avium (SMC#7)): 0.125 µg/mL (≈ 0.102 µM); MIC ([1]; M. intracellulare (SMC#400), 23S rRNA A2058/A2059 C/A): 0.125 µg/mL (≈ 0.102 µM); MIC ([1]; M. intracellulare (SMC#418), 23S rRNA A2058/A2059 G/A): 0.125 µg/mL (≈ 0.102 µM); CFUs in BMDMs, drug alone (M. avium in murine BMDMs; M. avium SMC#7 (Fig. 2C)): did not reduce CFUs; intracellular activity of combination with CLR compared to CLR alone (M. avium in murine BMDMs; M. avium SMC#7, each drug 10 µg/mL, 72 h): not significant compared to that of CLR alone; MIC (M. intracellulare; M. intracellulare (SMC#8)): 0.125 µg/mL (≈ 0.102 µM); MIC (M. intracellulare; M. intracellulare (SMC#9)): 0.125 µg/mL (≈ 0.102 µM); MIC (M. intracellulare; M. intracellulare (SMC#12)): 0.125 µg/mL (≈ 0.102 µM); MIC (M. intracellulare; M. intracellulare (SMC#699)): 0.125 µg/mL (≈ 0.102 µM); MIC (M. intracellulare; Mycobacterium intracellulare, ATCC13950): 0.125 µg/mL (≈ 0.102 µM); FICI (M. avium ATCC 700898; [15]): 0.54; FICI [4, 15]: 0.56; Fold increase, HCl salt ([5]; solubility of HCl salt compared to MP2): ×360 fold

From paper PMC10580953, “In vitro and intracellular activities of novel thiopeptide derivatives against macrolide-susceptible and macrolide-resistant Mycobacterium avium complex” (Microbiology Spectrum, 2023)
